Test results reported in patent US12441710B2, “Substituted piperidino compounds and related methods of treatment” (Alkermes, Inc., priority 2020, dated 2025).

What was measured:
[1] = target: T1, human orexin-2 receptor (OX2R) (Homo sapiens, UniProt O43614); test: Human OX2R IP1 assay; type: cell-based; conditions: T-Rex CHO cells stably overexpressing human OX2R; IP1 accumulation, 1 hr at 37 degrees C
T1 construct: expressed in transfected cells
T1 sequence (O43614 1-444): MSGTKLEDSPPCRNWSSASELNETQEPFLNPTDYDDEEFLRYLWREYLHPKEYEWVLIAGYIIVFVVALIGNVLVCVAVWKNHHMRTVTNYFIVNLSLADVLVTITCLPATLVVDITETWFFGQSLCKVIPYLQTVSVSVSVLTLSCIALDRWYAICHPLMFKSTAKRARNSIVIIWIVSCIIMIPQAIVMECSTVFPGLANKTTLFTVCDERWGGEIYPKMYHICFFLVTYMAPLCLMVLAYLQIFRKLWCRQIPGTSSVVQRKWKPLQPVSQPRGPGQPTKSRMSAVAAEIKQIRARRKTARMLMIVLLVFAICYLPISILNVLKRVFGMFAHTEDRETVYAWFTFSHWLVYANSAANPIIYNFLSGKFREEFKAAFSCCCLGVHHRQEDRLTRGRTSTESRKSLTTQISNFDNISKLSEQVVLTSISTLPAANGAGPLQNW
Procedure: T-Rex CHO cells stably overexpressing the human orexin-2 receptor (OX2R) were induced overnight with 1 μg/mL of doxycycline in a T225 flask. 24 hours post induction, cells were lifted with accutase and plated into a 384-well proxy plate at 30,000 cells/well. Cells were then treated with different test compounds in 1× stimulation buffer containing 10 mM Hepes, 1 mM CaCl2), 0.5 mM MgCl2, 4.2 mM KCl, 146 mM NaCl, 5.5 mM glucose, and 50 mM LiCl, pH 7.4, for 1 hr at 37 degrees C. Following incubation, the reaction was terminated by the addition of detection mix, which is composed of IP1-d2 and anti-IP1-cryptate diluted in lysis buffer as well as 1× stimulation buffer. The plates were allowed to incubate for 1 hour at room temperature and were then read in the EnVision® multimode plate reader, measuring inositol phosphate levels.
Cisbio IP1 is a cell-based functional assay quantifying the accumulation of inositol monophosphate (IP), a metabolite released as a result of orexin 2 receptor activation through the phospholipase C-Gq signaling pathway. This is a competitive immunoassay in which the IP1 produced by the cells upon receptor activation competes with the IP1 analog coupled to the d2 fluorophore (acceptor) for binding to an anti-IP1 monoclonal antibody labeled with Eu cryptate (donor). The measured HTRF-FRET based signal is inversely proportional to the IP1 concentration produced.
The EC50 values reported in Table 2 were obtained according to the human OX2R IP1 assay described above. Data are the mean EC50 values±S.E.M. The compound methyl (2R,3S)-3-((methylsulfonyl)amino)-2-(((cis-4-phenylcyclohexyl)oxy)methyl)-piperidine-1-carboxylate (sometimes referred to herein as Reference Compound A) is a reference compound which is disclosed in Example 5 of PCT publication no. WO2017/135306.

human hepatocytes = test: Hepatocytes stability assay (human hepatocytes); type: in vitro ADME; conditions: hepatic clearance divided by liver blood flow, fu assumed unity
Summary of the method: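 Pooled cryopreserved human hepatocytes (50 donors, mixed gender), 1×10^6 cells/mL in KHB, with 1 μM compound (0.1% DMSO) at 37 degrees C, sampled 0–240 min. Parent depletion by LC-MS/MS; first-order fit gave T1/2 and CLint, scaled to hepatic clearance by well-stirred model with fu assumed 1, plus extraction ratio.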

Sprague-Dawley rats = test: Assessment of wake promotion in Sprague-Dawley rats (EEG/EMG); type: in vivo, rat; conditions: SC, 3 mpk; male Sprague-Dawley rats; 6-hour post-dose period
Procedure: Wake promotion was assessed using electroencephalography (EEG) and electromyography (EMG) in adult male Sprague-Dawley rats. All rats (Charles River Laboratories, Raleigh, NC, USA) were intraperitoneally implanted with telemetry devices (F50-EEE, Data Sciences International Inc., MN, USA) under isoflurane anesthesia. For EEG, stainless steel screws were implanted over frontal cortex and parietal cortex, and reference screws were placed over cerebellum. Additionally, an electrode was placed in neck muscle for EMG. Rats were given carprofen post-surgery and underwent a 7 to 10-day recovery period. Rats habituated to the experimental room for 7 days and were maintained on a 12-hour light-dark cycle.
EEG and EMG data were recorded using the DSI telemetry system and Ponemah software (Data Sciences International Inc., MN, USA). Sleep-wake stages were scored both manually and with Somnivore, a supervised machine learning software platform, in 10 second epochs. Records were visually inspected as needed post-processing.
All test compounds were dissolved in 5% DMSO and suspended in 95% saline with 0.5% methylcellulose and 0.5% tween. […] Unless otherwise indicated, all compounds were dosed orally. Recordings for each rat were initiated immediately after dosing and lasted for 6 hours post-dose.
Two key endpoints include wakefulness time and cortical activation time. […]

## COC(=O)N1CCC[C@H](NS(C)(=O)=O)[C@@H]1CO[C@H]1CC[C@@H](c2ccccc2)CC1 [Reference Compound A, methyl (2R,3S)-3-((methylsulfonyl)amino)-2-(((cis-4-phenylcyclohexyl)oxy)methyl)-piperidine-1-carboxylate, reference compound]
[1]
  EC50: < 100 nM
Human hepatocytes
  Extraction Ratio (ER): 0.92
Sprague-Dawley rats
  Mean cortical activation time (% vehicle treatment): 118.75 % vehicle treatment
